Experiment: xn = mol fraction of the nth substance listed
Details: 101 kPa, Liquid; for viscosity: Falling or rolling sphere viscometry; for mass density: Vibrating tube method

CCCCCO [pentan-1-ol] + CCO
Details	mass density [kg/m3]	viscosity [mPa·s]
293.15 K, x2 = 0	814.16	3.939
293.15 K, x2 = 0.101	812.81	3.557
293.15 K, x2 = 0.2	811.19	3.218
293.15 K, x2 = 0.3	809.41	2.884
293.15 K, x2 = 0.401	807.59	2.584
293.15 K, x2 = 0.5	805.44	2.272
293.15 K, x2 = 0.6	803.06	2.025
293.15 K, x2 = 0.7	800.17	1.784
293.15 K, x2 = 0.801	797.32	1.551
293.15 K, x2 = 0.901	793.6	1.349
298.15 K, x2 = 0	810.52	3.412
298.15 K, x2 = 0.101	809.14	3.098
298.15 K, x2 = 0.2	807.5	2.818
298.15 K, x2 = 0.3	805.67	2.541
298.15 K, x2 = 0.401	803.79	2.288
298.15 K, x2 = 0.5	801.6	2.021
298.15 K, x2 = 0.6	799.16	1.81
298.15 K, x2 = 0.7	796.21	1.603
298.15 K, x2 = 0.801	793.25	1.399
298.15 K, x2 = 0.901	789.45	1.222
303.15 K, x2 = 0	806.84	2.971
303.15 K, x2 = 0.101	805.44	2.713
303.15 K, x2 = 0.2	803.76	2.48
303.15 K, x2 = 0.3	801.9	2.249
303.15 K, x2 = 0.401	799.97	2.034
303.15 K, x2 = 0.5	797.73	1.805
303.15 K, x2 = 0.6	795.24	1.624
303.15 K, x2 = 0.7	792.21	1.444
303.15 K, x2 = 0.801	789.17	1.265
303.15 K, x2 = 0.901	785.28	1.109
308.15 K, x2 = 0	803.14	2.599
308.15 K, x2 = 0.101	801.71	2.385
308.15 K, x2 = 0.2	800	2.192
308.15 K, x2 = 0.3	798.1	1.997
308.15 K, x2 = 0.401	796.12	1.814
308.15 K, x2 = 0.5	793.83	1.617
308.15 K, x2 = 0.6	791.27	1.461
308.15 K, x2 = 0.7	788.18	1.304
308.15 K, x2 = 0.801	785.06	1.147
308.15 K, x2 = 0.901	781.06	1.01
313.15 K, x2 = 0	799.42	2.283
313.15 K, x2 = 0.101	797.95	2.105
313.15 K, x2 = 0.2	796.2	1.943
313.15 K, x2 = 0.3	794.26	1.779
313.15 K, x2 = 0.401	792.24	1.623
313.15 K, x2 = 0.5	789.89	1.452
313.15 K, x2 = 0.6	787.27	1.317
313.15 K, x2 = 0.7	784.11	1.181
313.15 K, x2 = 0.801	780.91	1.042
313.15 K, x2 = 0.901	776.81	0.921
318.15 K, x2 = 0	795.64	2.014
318.15 K, x2 = 0.101	794.14	1.865
318.15 K, x2 = 0.2	792.36	1.728
318.15 K, x2 = 0.3	790.38	1.59
318.15 K, x2 = 0.401	788.31	1.455
318.15 K, x2 = 0.5	785.91	1.308
318.15 K, x2 = 0.6	783.23	1.192
318.15 K, x2 = 0.7	780	1.072
318.15 K, x2 = 0.801	776.71	0.949
318.15 K, x2 = 0.901	772.51	0.841
323.15 K, x2 = 0	791.84	1.784
323.15 K, x2 = 0.101	790.29	1.658
323.15 K, x2 = 0.2	788.48	1.543
323.15 K, x2 = 0.3	786.46	1.426
323.15 K, x2 = 0.401	784.34	1.31
323.15 K, x2 = 0.5	781.88	1.181
323.15 K, x2 = 0.6	779.14	1.08
323.15 K, x2 = 0.7	775.83	0.975
323.15 K, x2 = 0.801	772.46	0.866
323.15 K, x2 = 0.901	768.16	0.771
328.15 K, x2 = 0	787.98	1.586
328.15 K, x2 = 0.101	786.4	1.48
328.15 K, x2 = 0.2	784.55	1.382
328.15 K, x2 = 0.3	782.49	1.283
328.15 K, x2 = 0.401	780.32	1.182
328.15 K, x2 = 0.5	777.8	1.07
328.15 K, x2 = 0.6	775	0.982
328.15 K, x2 = 0.7	771.63	0.889
328.15 K, x2 = 0.801	768.16	0.792
328.15 K, x2 = 0.901	763.76	0.707

Source: the NIST ThermoML archive (doi:10.1021/je300632p)
